How the values were obtained:
HCT116 cells = test: In vitro assay of inhibition of proliferation in whole cells (MTS); type: cell-based; details: Homo sapiens, HCT-116, 72 hours treatment, read-out: Test (b) IC50
Experimental: (b) In Vitro Assay of Inhibition of Proliferation in Whole Cells
Inhibition of proliferation in whole cells was assayed using the Promega cell titer 96 aqueous proliferation assay (Promega #G5421). The HCT116 cells were seeded in 96 well plates at 1×10^3 cells/well, and allowed to adhere overnight. They were treated with inhibitors for 72 hours. The 20 μl of the tetrazolium dye MTS was added to each well and the plates were reincubated for 3 hours. Absorbance was then measured on a 96 well plate reader at […]. The IC50 values for HDAC inhibitors were determined by performing dose response curves with individual compounds and determining the concentration of inhibitor producing fifty percent decrease in maximal signal (diluent control).

recombinant human HDAC1 = biological target: T1, recombinant human HDAC1 (Homo sapiens, UniProt Q13547); test: In vitro enzyme assay of recombinant HDAC1; type: biochemical; details: recombinant human HDAC1 produced in Hi5 insect cells; acetylated histone H4 peptide, Fluor de Lys; read-out: Test (a) IC50
T1 construct: FLAG (C); made in house; host or cells: Hi5 insect cells
Experimental: (a) In Vitro Enzyme Assay of recombinant HDAC1
HDAC inhibitors were screened against recombinant human HDAC1 produced in Hi5 insect cells. The enzyme was cloned with a FLAG tag at the C-terminal of the gene and affinity purified using Anti-FLAG M2 agarose from SIGMA (A2220).
The deacetylase assays were carried out in a 50 μl reaction. HDAC1 (75 ng of enzyme) diluted in 15 μl of reaction buffer (25 mM Tris HCl (pH 8), 137 mM NaCl, 2.7 mM KCl, 1 mM MgCl2) was mixed with either buffer alone (10 μl) or buffer containing compound (10 μl) for 30 minutes at ambient temperature. The 25 μM acetylated histone H4 peptide (KI 174 Biomol) diluted in 25 μl of buffer was then added to the reaction and incubated for one hour at ambient temperature. The reaction was stopped by addition of an equal volume (50 μl) Fluor de Lys developer (Biomol) containing Trichostatin A at 2 μM. The reaction was allowed to develop for 30 minutes at ambient temperature and then fluorescence measured at an excitation wavelength of 360 nm and an emission wavelength of 465 nm. The IC50 values for HDAC enzyme inhibitors were determined by performing dose response curves with individual compounds and determining the concentration of inhibitor producing fifty percent decrease in the maximal signal (diluent control).

T1 sequence (Q13547 whole entry): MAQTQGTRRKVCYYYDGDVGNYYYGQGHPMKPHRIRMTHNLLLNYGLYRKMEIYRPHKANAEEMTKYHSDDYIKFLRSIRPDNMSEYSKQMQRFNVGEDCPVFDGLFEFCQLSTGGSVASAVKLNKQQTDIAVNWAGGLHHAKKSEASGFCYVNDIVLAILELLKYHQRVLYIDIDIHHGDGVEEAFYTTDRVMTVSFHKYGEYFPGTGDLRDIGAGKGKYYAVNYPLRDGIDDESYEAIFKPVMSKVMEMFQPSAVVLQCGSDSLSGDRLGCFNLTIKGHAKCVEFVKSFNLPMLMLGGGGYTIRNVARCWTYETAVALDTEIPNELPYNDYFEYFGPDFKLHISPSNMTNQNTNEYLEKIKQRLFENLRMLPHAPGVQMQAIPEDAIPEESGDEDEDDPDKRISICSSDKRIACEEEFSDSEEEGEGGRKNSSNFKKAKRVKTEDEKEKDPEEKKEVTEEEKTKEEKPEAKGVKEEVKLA

IC50 (HCT116 cells) [nM]	IC50 (recombinant human HDAC1) [nM]	SMILES
211	3	N#Cc1cc(CN2CCC(c3ccccn3)C2)cnc1-c1ccc(C(=O)Nc2ccccc2N)cc1 (centres unmarked) [2 (10), N-(2-aminophenyl)-4-{3-cyano-5-[(3-pyridin-2-ylpyrrolidin-1-yl)methyl]pyridin-2-yl}benzamide]
289	13	N#Cc1cccnc1-c1ccc(C(=O)Nc2ccccc2N)cc1 [Example 1, N-(2-aminophenyl)-4-(3-cyanopyridin-2-yl)benzamide]
218	6	C[C@@H]1CC[C@@H](C)N1Cc1cnc(-c2ccc(C(=O)Nc3ccccc3N)cc2)c(C#N)c1 [2 (12), N-(2-aminophenyl)-4-(3-cyano-5-{[(2R,5R)-2,5-dimethylpyrrolidin-1-yl]methyl}pyridin-2-yl)benzamide]
287	12	CC(C)N(C)Cc1cnc(-c2ccc(C(=O)Nc3ccccc3N)cc2)c(C#N)c1 [5 (15), N-(2-aminophenyl)-4-(3-cyano-5-{[isopropyl(methyl)amino]methyl}pyridin-2-yl)benzamide]

Source: patent US7897778B2, “Benzamide compounds” (AstraZeneca, priority 2004, dated 2011)
